The text below walks through data of ChEMBL document CHEMBL1201862, “PubChem BioAssay data set” (2004).

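All cell lines were grown in 96-well plates and treated with compound for 48 hours. GI50 = concentration required for 50% inhibition of growth.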 The source made the active and inactive calls. Rule as the data show it: active = GI50 up to about 1.1 µM and inactive = higher. Where only a bound is given, the exact number is not on record here.

Common to all, as to experiment: DTP human tumour cell line panel, 48 h
Experiment [1] deals with NCI-H226.
In experiment [2] the test system is SK-MEL-5.
In experiment [3] the test system is MOLT-4.
Experiment [4] relates to NCI-H460.
The subject of experiment [5] is HCT-116.
The subject of experiment [6] is HL-60.
Experiment [7] concerns UO-31.
The test system of experiment [8] is MDA-N.
Experiment [9] concerns IGROV-1.
Experiment [10] has as its system SF-539.
Experiment [11] has as its system NCI-H23.
The test system of experiment [12] is SF-268.
The test system of experiment [13] is U-251.
The test system of experiment [14] is RXF 393.
Experiment [15] concerns SK-OV-3.
For experiment [16], the system named is HT-29.
Experiment [17] has as its system OVCAR-8.
Experiment [18] has as its system OVCAR-5.
Experiment [19] concerns SR.

As a reminder, the GI50 is the concentration at which growth is held to half of that of the control. As for `CC(=O)OC(Cc1ccc2ccccc2n1)(C(F)(F)F)C(F)(F)F`, the GI50 is 1.76 µM (inactive) in [1]; 0.253 µM (active) in experiment [2]; 0.0796 µM (active) in [3]; 6 µM (inactive) in experiment [4]; 1.31 µM (inactive) in experiment [5]; 0.0205 µM (active) in experiment [6]. The GI50 was 2.22 µM (inactive) in [7]; 1.17 µM (inactive) in experiment [8]; 1.31 µM (inactive) in [9]; 2.32 µM (inactive) in experiment [10]; 1.58 µM (inactive) in experiment [11]; 2.17 µM (inactive) in experiment [12]. Further, the GI50 was 5.74 µM (inactive) in [13]; 0.675 µM (active) in [14]; 14.3 µM (inactive) in experiment [15]; 1.27 µM (inactive) in experiment [16]; 1.69 µM (inactive) in [17]; 2.89 µM (inactive) in [18]. The GI50 in [19] was 0.11 µM (active).
`O=C1[C@H](O)[C@@H]2CCC[C@@]23CCCN13`: the GI50 in experiment [1], in [2], in experiment [3], in experiment [4], in [5] and in experiment [6] was > 100 µM (inactive) in each case. The GI50 in experiment [7], in [8], in experiment [9], in experiment [10], in experiment [11] and in experiment [12] was > 100 µM (inactive) each time. Also, the GI50 in experiment [13], in experiment [14], in experiment [15], in experiment [16], in experiment [17] and in [18] was > 100 µM (inactive) in each case. Also, the GI50 in [19] was > 100 µM (inactive).
Turning to `CCCCc1c2c(nc3c1CCCC3O)CCCC2` (stereo unspecified), the GI50 was > 100 µM (inactive) in experiment [1]; > 100 µM (inactive) in experiment [2]; 71 µM (inactive) in experiment [3]; > 100 µM (inactive) in experiment [4]; > 100 µM (inactive) in [5]; > 100 µM (inactive) in experiment [6]. For the same molecule, the GI50 in experiment [7], in experiment [8], in experiment [9], in [10], in experiment [11] and in experiment [12] was > 100 µM (inactive) in each case. The GI50 was > 100 µM (inactive) in experiment [13]; > 100 µM (inactive) in [14]; > 100 µM (inactive) in experiment [15]; 85.3 µM (inactive) in [16]; > 100 µM (inactive) in [17]; > 100 µM (inactive) in experiment [18]. The GI50 in experiment [19] was 5.11 µM (inactive).
Turning to `CC(C(=O)O)C(C)(O)C(=O)O` (stereo unspecified), the GI50 in [1], in experiment [2], in experiment [3], in experiment [4], in experiment [5] and in experiment [6] was > 100 µM (inactive) throughout. Moreover, the GI50 in [7], in experiment [8], in experiment [9], in experiment [10], in experiment [11] and in experiment [12] was > 100 µM (inactive) in each case. In addition, the GI50 in [13] is > 100 µM (inactive); in [14], > 100 µM (inactive); in experiment [15], > 100 µM (inactive); in experiment [16] it was > 100 µM (inactive); in experiment [17] it was > 100 µM (inactive); in [18], 61.8 µM (inactive). The GI50 in experiment [19] was > 100 µM (inactive).
